Measurements reported in publication PMC6693646 (Neuropharmacology, 2019).
Bridge positions count the residues as written; N and C are the ends. Peptide text beside a SMILES is read from it.

How the values were obtained:
rα6β4 nAChR = rα6β4 nAChR (Rattus norvegicus, UniProt P12392+P43143); experiment: cell-based
rα3β4 nAChR = rα3β4 nAChR (Rattus norvegicus, UniProt P04757+P12392); experiment: cell-based
rα6/α3β2β3 nAChR [1] = biological target: T1, rα6/α3β2β3 nAChR (Rattus norvegicus, UniProt P04757+P12390+P43143); experiment: cell-based
rα2β2 nAChR = rα2β2 nAChR (Rattus norvegicus, UniProt P12389+P12390); experiment: cell-based
rα2β4 nAChR = rα2β4 nAChR (Rattus norvegicus, UniProt P12389+P12392); experiment: cell-based
rα3β2 nAChR = rα3β2 nAChR (Rattus norvegicus, UniProt P04757+P12390); experiment: cell-based
rα4β2 nAChR = rα4β2 nAChR (Rattus norvegicus, UniProt P09483+P12390); experiment: cell-based; assay type: cell-based
rα4β4 nAChR = rα4β4 nAChR (Rattus norvegicus, UniProt P09483+P12392); experiment: cell-based
rα7 nAChR = rα7 nAChR (Rattus norvegicus, UniProt Q05941); experiment: cell-based
rα9α10 nAChR = rα9α10 nAChR (Rattus norvegicus, UniProt P43144+Q9JLB5); experiment: cell-based
hα6/α3β4 nAChR = hα6/α3β4 nAChR (Homo sapiens, UniProt P30926+P32297+Q15825); experiment: cell-based
hα3β4 nAChR = hα3β4 nAChR (Homo sapiens, UniProt P30926+P32297); experiment: cell-based
hα6/α3β2β3 nAChR = hα6/α3β2β3 nAChR (Homo sapiens, UniProt P17787+P32297+Q05901+Q15825); experiment: cell-based
hα4β2 nAChR = hα4β2 nAChR (Homo sapiens, UniProt P17787+P43681); experiment: cell-based
rα6/α3β4 nAChR [2] = biological target: T2, rα6/α3β4 nAChR (Rattus norvegicus, UniProt P04757+P12392+P43143); experiment: cell-based
rα6/α3β4 nAChR [3] = biological target: T2, rα6/α3β4 nAChR; assay type: cell-based
rα6/α3β2β3 nAChR [4] = biological target: T1, rα6/α3β2β3 nAChR; assay type: cell-based
[5] = read-out: inhibition of ACh-evoked current

T1 sequence (P43143 31-237 limits assumed): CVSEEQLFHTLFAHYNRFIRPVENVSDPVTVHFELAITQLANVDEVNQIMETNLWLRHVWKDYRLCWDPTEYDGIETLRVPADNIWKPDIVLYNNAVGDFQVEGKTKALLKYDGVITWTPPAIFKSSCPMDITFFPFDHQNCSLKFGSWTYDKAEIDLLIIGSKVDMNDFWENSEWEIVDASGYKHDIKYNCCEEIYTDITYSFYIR
T1 sequence (P04757 233-499 limits assumed): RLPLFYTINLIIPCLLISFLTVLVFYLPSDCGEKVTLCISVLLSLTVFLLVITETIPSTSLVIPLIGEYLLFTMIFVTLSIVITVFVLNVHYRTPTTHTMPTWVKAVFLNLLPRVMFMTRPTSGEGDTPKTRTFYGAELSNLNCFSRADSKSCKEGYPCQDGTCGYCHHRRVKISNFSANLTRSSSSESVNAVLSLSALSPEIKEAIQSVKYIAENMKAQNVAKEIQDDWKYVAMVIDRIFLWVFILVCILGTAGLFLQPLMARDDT
T1 sequence (P12390 25-500 limits assumed): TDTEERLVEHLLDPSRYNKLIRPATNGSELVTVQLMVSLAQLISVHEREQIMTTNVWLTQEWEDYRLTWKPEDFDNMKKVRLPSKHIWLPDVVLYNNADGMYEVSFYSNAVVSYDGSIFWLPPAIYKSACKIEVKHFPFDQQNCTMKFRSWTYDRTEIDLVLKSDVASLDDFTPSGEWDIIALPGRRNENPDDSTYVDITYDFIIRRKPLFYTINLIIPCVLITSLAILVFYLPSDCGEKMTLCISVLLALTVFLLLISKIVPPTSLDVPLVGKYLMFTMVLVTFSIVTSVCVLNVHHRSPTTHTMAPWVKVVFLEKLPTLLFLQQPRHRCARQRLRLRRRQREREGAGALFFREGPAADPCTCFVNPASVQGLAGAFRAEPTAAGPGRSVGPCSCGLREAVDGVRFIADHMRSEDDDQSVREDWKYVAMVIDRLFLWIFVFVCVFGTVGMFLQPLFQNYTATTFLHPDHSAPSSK
T2 sequence (P43143 31-237 limits assumed): as the sequence (P43143 31-237 limits assumed) above
T2 sequence (P04757 233-499 limits assumed): as the sequence (P04757 233-499 limits assumed) above
T2 sequence (P12392 22-495 limits assumed): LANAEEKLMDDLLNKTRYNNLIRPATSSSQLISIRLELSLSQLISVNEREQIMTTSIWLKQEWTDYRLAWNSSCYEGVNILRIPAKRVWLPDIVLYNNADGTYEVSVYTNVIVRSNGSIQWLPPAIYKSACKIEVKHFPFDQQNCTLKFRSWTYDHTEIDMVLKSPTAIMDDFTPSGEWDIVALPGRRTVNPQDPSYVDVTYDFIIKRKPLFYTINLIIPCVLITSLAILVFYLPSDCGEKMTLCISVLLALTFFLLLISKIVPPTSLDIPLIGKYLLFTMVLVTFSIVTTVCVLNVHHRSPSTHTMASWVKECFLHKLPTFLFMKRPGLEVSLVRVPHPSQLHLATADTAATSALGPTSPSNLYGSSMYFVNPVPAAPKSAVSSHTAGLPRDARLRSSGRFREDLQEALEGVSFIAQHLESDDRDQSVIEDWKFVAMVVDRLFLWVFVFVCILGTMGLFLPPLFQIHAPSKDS
Chain of rα4β2 nAChR (P09483 31-630 limits assumed): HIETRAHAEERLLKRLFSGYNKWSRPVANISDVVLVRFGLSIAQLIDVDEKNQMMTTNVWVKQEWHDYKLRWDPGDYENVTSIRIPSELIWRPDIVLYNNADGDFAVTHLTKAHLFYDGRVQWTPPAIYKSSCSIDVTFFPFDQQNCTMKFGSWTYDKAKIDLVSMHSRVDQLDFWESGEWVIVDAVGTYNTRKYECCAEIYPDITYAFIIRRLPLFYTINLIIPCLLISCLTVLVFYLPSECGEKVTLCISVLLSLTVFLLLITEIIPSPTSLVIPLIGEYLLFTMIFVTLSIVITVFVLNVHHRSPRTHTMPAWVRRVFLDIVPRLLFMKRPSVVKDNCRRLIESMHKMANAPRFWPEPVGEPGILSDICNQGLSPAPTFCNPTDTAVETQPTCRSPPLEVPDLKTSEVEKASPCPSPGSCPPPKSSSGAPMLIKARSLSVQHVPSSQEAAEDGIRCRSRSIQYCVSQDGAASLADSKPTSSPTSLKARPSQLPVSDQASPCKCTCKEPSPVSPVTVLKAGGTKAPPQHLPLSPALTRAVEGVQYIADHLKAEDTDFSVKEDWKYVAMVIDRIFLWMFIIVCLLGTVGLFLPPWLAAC
Chain of rα4β2 nAChR (P12390 25-500 limits assumed): as the sequence (P12390 25-500 limits assumed) above
Chain of rα3β4 nAChR (P04757 26-499 limits assumed): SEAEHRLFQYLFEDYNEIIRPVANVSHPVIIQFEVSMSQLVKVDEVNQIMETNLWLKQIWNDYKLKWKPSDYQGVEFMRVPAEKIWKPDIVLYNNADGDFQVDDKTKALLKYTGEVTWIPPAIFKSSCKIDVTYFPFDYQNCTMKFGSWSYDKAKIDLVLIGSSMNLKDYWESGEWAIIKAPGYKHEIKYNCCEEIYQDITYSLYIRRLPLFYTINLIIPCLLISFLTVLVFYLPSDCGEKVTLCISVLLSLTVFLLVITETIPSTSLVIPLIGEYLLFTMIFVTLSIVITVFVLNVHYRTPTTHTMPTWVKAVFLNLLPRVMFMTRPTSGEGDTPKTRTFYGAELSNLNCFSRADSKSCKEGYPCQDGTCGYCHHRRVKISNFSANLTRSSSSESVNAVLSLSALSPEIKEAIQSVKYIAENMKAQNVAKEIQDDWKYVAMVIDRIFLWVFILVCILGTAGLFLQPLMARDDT
Chain of rα3β4 nAChR (P12392 22-495 limits assumed): as the sequence (P12392 22-495 limits assumed) above
Chain of hα6/α3β2β3 nAChR (P17787 whole entry, looked up): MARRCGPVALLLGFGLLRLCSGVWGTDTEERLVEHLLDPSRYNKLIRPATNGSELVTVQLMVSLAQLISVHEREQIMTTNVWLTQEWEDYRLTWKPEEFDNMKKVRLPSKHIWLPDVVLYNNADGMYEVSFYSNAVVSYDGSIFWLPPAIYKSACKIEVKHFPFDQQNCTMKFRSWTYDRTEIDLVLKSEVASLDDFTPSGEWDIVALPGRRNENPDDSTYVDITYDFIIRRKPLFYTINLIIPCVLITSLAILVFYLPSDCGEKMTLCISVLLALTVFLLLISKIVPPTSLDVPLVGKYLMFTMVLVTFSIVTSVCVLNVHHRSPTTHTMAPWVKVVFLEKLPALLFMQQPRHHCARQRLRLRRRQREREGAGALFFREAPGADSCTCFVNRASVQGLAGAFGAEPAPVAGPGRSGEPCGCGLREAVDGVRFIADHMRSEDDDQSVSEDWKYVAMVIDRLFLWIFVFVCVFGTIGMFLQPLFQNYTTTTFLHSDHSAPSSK
Chain of hα6/α3β2β3 nAChR (P32297 whole entry, looked up): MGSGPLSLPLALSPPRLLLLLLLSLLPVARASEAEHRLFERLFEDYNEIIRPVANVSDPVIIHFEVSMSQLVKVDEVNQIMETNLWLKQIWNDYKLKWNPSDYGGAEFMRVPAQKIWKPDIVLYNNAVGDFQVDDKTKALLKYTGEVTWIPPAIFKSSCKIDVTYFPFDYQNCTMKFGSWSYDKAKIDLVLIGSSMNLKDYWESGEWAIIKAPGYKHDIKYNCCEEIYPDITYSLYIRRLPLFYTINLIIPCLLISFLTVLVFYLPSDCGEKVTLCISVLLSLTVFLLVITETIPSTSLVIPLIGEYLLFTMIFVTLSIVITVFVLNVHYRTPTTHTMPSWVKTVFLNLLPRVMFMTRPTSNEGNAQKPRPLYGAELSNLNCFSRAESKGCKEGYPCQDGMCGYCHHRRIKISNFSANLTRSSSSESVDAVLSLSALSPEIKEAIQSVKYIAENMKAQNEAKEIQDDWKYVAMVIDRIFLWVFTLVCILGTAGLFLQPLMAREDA
Chain of hα6/α3β2β3 nAChR (Q05901 whole entry, looked up): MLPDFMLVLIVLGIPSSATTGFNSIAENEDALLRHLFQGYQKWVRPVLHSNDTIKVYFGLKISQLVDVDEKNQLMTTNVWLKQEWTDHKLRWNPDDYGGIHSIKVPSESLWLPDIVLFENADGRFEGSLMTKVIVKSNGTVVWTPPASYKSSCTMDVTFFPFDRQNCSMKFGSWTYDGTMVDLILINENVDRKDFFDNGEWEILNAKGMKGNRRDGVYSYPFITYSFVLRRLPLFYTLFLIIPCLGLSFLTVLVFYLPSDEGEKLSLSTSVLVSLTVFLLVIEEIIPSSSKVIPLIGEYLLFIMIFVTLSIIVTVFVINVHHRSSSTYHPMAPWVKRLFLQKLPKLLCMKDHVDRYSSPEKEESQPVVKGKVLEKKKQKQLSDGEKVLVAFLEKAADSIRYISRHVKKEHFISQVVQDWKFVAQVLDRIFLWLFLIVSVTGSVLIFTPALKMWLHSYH
Chain of hα6/α3β2β3 nAChR (Q15825 whole entry, looked up): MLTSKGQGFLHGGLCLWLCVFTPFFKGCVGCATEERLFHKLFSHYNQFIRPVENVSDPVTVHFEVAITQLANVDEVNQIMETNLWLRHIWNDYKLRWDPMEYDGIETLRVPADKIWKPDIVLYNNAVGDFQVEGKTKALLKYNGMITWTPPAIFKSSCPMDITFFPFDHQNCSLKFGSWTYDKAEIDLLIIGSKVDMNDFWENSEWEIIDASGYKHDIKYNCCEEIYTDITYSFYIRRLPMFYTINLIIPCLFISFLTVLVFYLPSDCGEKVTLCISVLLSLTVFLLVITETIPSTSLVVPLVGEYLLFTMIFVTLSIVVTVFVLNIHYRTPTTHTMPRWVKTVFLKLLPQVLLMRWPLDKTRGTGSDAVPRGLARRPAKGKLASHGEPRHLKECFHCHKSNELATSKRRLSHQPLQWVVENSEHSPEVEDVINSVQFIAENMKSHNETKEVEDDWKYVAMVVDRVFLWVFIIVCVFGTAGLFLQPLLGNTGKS
Chain of rα4β4 nAChR (P09483 31-630 limits assumed): as the sequence (P09483 31-630 limits assumed) above
Chain of rα4β4 nAChR (P12392 22-495 limits assumed): as the sequence (P12392 22-495 limits assumed) above
Chain of rα3β2 nAChR (P04757 26-499 limits assumed): as the sequence (P04757 26-499 limits assumed) above
Chain of rα3β2 nAChR (P12390 25-500 limits assumed): as the sequence (P12390 25-500 limits assumed) above

**Q.** What does the source list for `CC(C)[C@@H]1NC(=O)[C@@H]2CCCN2C(=O)[C@H](Cc2c[nH]cn2)NC(=O)[C@H](CO)NC(=O)[C@@H]2CSSC[C@@H](C(=O)NCC(N)=O)NC(=O)[C@H](CC(N)=O)NC(=O)[C@@H]3CCCN3C(=O)[C@H](CC(N)=O)NC(=O)[C@H](CCCCN)NC(=O)[C@H]([C@@H](C)O)NC(=O)[C@H](Cc3ccc(O)cc3)NC(=O)[C@H](CSSC[C@H](NC(=O)CNC(=O)CN)C(=O)N2)NC1=O` [VnIB] (H-GGCCSHPVCYTKNPNCG-NH2; disulfide 3-9, 4-16)?
**A.** IC50 (rα6β4 nAChR): 0.012 µM; IC50 (rα3β4 nAChR): 0.32 µM; inhibition at 1 µM (rα3β4 nAChR; [5]): 80%; IC50 (rα6/α3β2β3 nAChR [1]): 4 µM; inhibition at 1 µM (rα6/α3β2β3 nAChR [1]; [5]): 23%; IC50 (rα2β2 nAChR): > 10 µM; IC50 (rα2β4 nAChR): > 10 µM; IC50 (rα3β2 nAChR): > 10 µM; IC50 (rα4β2 nAChR): > 10 µM; effect on ACh-evoked response (rα4β2 nAChR): no significant effect; IC50 (rα4β4 nAChR): > 10 µM; IC50 (rα7 nAChR): > 10 µM; IC50 (rα9α10 nAChR): > 10 µM; IC50 (hα6/α3β4 nAChR): 0.0053 µM; IC50 (hα3β4 nAChR): > 10 µM; IC50 (hα6/α3β2β3 nAChR): > 10 µM; IC50 (hα4β2 nAChR): > 10 µM; koff (rα6/α3β4 nAChR [2]): 0.00437 s⁻¹; kon (rα6/α3β4 nAChR [2]): 420000 M⁻¹ s⁻¹; reduction of ACh-evoked currents (rα6/α3β4 nAChR [3]): ~ 85%; reduction of ACh-evoked currents (rα6/α3β2β3 nAChR [4]): ~ 10%
